From patent US4550186A, “Binuclear copper (II) carboxylates formed from amine-carboxyboranes” (Duke University, priority 1983, dated 1985)

Tests used:
[1] = target: T1, ATP Dependent Citrate Lyase (Mus musculus, UniProt Q91V92); experiment: In vitro liver enzyme study: ATP dependent citrate lyase; type: biochemical; conditions: in vitro CF1 liver, 30 min
T1 construct: 10% homogenates of CF1 male mouse liver; from tissue; host or cells: CF1 male mouse liver, 10% homogenate
T1 sequence (Q91V92 1-1091): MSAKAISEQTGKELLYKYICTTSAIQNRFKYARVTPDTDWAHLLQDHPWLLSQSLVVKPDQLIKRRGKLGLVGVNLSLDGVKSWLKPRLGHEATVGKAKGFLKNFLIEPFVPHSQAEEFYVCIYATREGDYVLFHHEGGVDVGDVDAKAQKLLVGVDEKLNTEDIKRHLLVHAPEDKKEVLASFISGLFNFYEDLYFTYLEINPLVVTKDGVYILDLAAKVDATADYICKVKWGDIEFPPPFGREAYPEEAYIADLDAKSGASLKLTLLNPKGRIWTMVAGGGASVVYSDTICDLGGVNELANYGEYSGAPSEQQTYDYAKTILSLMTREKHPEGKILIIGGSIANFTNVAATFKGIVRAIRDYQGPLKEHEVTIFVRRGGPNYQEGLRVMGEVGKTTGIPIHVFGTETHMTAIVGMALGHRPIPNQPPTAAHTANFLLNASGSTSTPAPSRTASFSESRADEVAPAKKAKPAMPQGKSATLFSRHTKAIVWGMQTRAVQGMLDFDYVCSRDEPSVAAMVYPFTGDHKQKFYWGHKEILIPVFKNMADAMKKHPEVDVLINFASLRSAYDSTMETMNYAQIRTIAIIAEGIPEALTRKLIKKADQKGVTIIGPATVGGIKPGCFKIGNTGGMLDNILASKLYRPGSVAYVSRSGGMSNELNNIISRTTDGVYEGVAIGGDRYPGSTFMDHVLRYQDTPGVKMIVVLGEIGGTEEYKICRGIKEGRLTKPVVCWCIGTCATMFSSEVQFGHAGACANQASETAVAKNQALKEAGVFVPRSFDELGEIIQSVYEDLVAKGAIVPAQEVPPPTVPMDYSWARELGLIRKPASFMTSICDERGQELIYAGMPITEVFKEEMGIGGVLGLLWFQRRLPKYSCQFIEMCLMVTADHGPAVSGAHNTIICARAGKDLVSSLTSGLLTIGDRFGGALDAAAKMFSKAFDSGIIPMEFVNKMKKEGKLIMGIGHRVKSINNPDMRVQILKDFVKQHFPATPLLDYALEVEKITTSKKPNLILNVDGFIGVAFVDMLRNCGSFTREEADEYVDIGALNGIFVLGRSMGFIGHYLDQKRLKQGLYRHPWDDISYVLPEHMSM
Protocol: (§1) In vitro enzymatic studies were determined using 10% homogenates of CF1 male mouse liver with 50-200 μM of test drugs. In vivo enzymatic studies were determined using 10% homogenates of liver from CF1 male mice obtained after administering the agents for 16 days at a dose ranging from 2.5-20 mg/kg/day intraperitoneally. The liver homogenates for both in vitro and in vivo studies were prepared in 0.25M sucrose and 0.001M (ethylenedinitrilo)tetraacetic acid. Acetyl coenzyme A synthetase and adenosine triphosphate dependent citrate lyase activities were determined spectrophotometrically at 540 nm as the hydroxylamate of acetyl coenzyme A formed after 30 min at 37° C. Mitochondrial citrate exchange was determined by the procedure of Robinson et al [Eur. J. Biochem., 216, 63 (1970)] using ^14 C-sodium bicarbonate (41 mCi/mmol) incorporated into mitochondrial ^14 C-citrate after isolating rat mitochondria (9000 g×10 min) from the homogenates. The exchanges of the ^14 C-citrate were determined after incubating the mitochondrial fraction which was loaded with labeled citrate and test drugs for 10 min. Then the radioactivity was measured in the mitochondrial and supernantant fractions in scintillation fluid and expressed as a percentage. Cholesterol side chain oxidation was determined by the method of Kritchevsky and Tepper [Artherosclerosis, 18, 93 (1973)] using (26-^14 C) cholesterol (50 mCi/mmol) and mitochondria isolated from rat liver homogenates. […] Fatty acid synthetase activity was determined by the method of Brady et al [J. Biol. Chem., 235, 3093 (1960)] using [2-^14 C] malonyl-coenzyme A (37.5 mCi/mmol) which was incorporated into newly synthesized fatty acids that were extracted with ether and counted. Acyl transferase activity was determined with glycerol-3phosphate [L-2-^3 H(N)] […] HCl and counted. Phosphatidate phosphohydrolase activity was measured as the inorganic phosphate released after 30 min from phosphatidic acid by the method of Mavis et al [J. Lipid Res., 19, 467 (1978)]. […]

Acetyl CoA synthetase = experiment: In vitro liver enzyme study: acetyl CoA synthetase; type: biochemical, mouse; conditions: in vitro CF1 liver, 30 min
Protocol: as §1

## {Cu[(CH3)3 N.BH2 CO2 ]2.(CH3)3 N.BH2 COOH} [Compound I]
[1]; 50 μM
  ATP Dependent Citrate Lyase: 110 ± 6 Percent Control
[1]; 100 μM
  ATP Dependent Citrate Lyase: 98 ± 5 Percent Control
[1]; 200 μM
  ATP Dependent Citrate Lyase: 105 ± 7 Percent Control
Acetyl CoA synthetase; 50 μM
  Acetyl CoA synthetase: 104 ± 5 Percent Control
Acetyl CoA synthetase; 100 μM
  Acetyl CoA synthetase: 87 ± 4 Percent Control
Acetyl CoA synthetase; 200 μM
  Acetyl CoA synthetase: 84 ± 5 Percent Control
